Among the data in PubChem BioAssay (NCI) are GI50 and TGI values, retold here.

Some test systems named below: BT-549 breast; HOP-92 NSCLC; KM12 colon; MDA-MB-231 breast; OVCAR-8 ovarian; RPMI-8226 leukemia; SF-539 CNS; SK-MEL-28 melanoma; SNB-19 CNS; UACC-257 melanoma.
Assay in all cases: NCI anticancer screen, dose series, 48 h

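Protocol summary: plate cells (96-well), add compound at 5 concentrations, incubate 48 h, interpolate endpoints linearly. Abbreviation: GI50, concentration required for 50% inhibition of growth. TGI: total growth inhibition.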

On to `O=C(c1ccco1)c1c(C(F)(F)F)n([O-])c2cc(F)c(F)cc2[n+]1=O`, for which the GI50 in the experiment with BT-549 breast was 163 nM; in the experiment on HOP-92 NSCLC it was 1490 nM; with KM12 colon, 0.7 µM; in the experiment with MDA-MB-231 breast, 140 nM; in the experiment with OVCAR-8 ovarian, 412 nM; with SF-539 CNS, 329 nM. The GI50 in the experiment on SK-MEL-28 melanoma was 0.416 µM; with SNB-19 CNS it was 1.02 µM; in the experiment with UACC-257 melanoma it was 1.29 µM. The TGI with BT-549 breast was 0.389 µM; with HOP-92 NSCLC it was 3.21 µM; in the experiment on KM12 colon, 2 µM; with MDA-MB-231 breast, 0.313 µM; with OVCAR-8 ovarian, 1.33 µM; in the experiment on RPMI-8226 leukemia it was 0.341 µM. Further, the TGI was 0.679 µM with SF-539 CNS, 2.58 µM in the experiment with SK-MEL-28 melanoma, 2.35 µM in the experiment on SNB-19 CNS and 3.01 µM with UACC-257 melanoma.
Regarding `Cc1ccc(Cl)cc1-n1c(C)nc2c(cnn2-c2ccnc3c(C(F)(F)F)cccc23)c1=O`, the GI50 is over 100000 nM with BT-549 breast; over 100000 nM in the experiment with HOP-92 NSCLC; over 100 µM in the experiment with KM12 colon; over 100000 nM in the experiment on MDA-MB-231 breast; over 100000 nM in the experiment on OVCAR-8 ovarian; over 100 µM in the experiment with RPMI-8226 leukemia. Further, the GI50 in the experiment with SF-539 CNS is over 100000 nM; in the experiment on SK-MEL-28 melanoma, over 100 µM; in the experiment on SNB-19 CNS, over 100 µM; in the experiment on UACC-257 melanoma, over 100 µM. Also, the TGI with BT-549 breast, in the experiment on HOP-92 NSCLC, with KM12 colon, with MDA-MB-231 breast, in the experiment on OVCAR-8 ovarian and in the experiment with RPMI-8226 leukemia was over 100 µM in each case. For the same compound, the TGI in the experiment with SF-539 CNS, in the experiment with SK-MEL-28 melanoma, with SNB-19 CNS and in the experiment on UACC-257 melanoma was over 100 µM each time.
As to `COc1ccc(-c2[nH]c3ccccc3c2/C=C(\C#N)S(=O)(=O)c2ccccc2)cc1`, the GI50 in the experiment on BT-549 breast was 1630 nM; in the experiment on HOP-92 NSCLC, 1430 nM; with KM12 colon, 0.374 µM; in the experiment with MDA-MB-231 breast, 580 nM; in the experiment with OVCAR-8 ovarian, 1290 nM; with RPMI-8226 leukemia, 2.14 µM. In addition, the GI50 in the experiment with SF-539 CNS was 299 nM; in the experiment with SK-MEL-28 melanoma it was 1.48 µM; with SNB-19 CNS, 0.844 µM; in the experiment on UACC-257 melanoma, 10.7 µM. For the same compound, the TGI in the experiment with BT-549 breast is over 76 µM; with HOP-92 NSCLC, over 20.6 µM; with KM12 colon, 2.59 µM; in the experiment on MDA-MB-231 breast, over 60.8 µM; with OVCAR-8 ovarian, over 26.6 µM; in the experiment on RPMI-8226 leukemia, over 100 µM. For the same compound, the TGI in the experiment on SF-539 CNS is 1.13 µM; in the experiment on SK-MEL-28 melanoma, over 71.9 µM; in the experiment with SNB-19 CNS, over 100 µM; in the experiment with UACC-257 melanoma, over 100 µM.
On to `N#CC1C(N)=NNC12Nc1ccccc1S2` (stereo not drawn), for which the GI50 was 18700 nM with BT-549 breast; 34700 nM in the experiment on HOP-92 NSCLC; 18.9 µM in the experiment on KM12 colon; 3590 nM in the experiment on MDA-MB-231 breast; 13000 nM in the experiment with OVCAR-8 ovarian; 26.3 µM in the experiment on RPMI-8226 leukemia. Moreover, the GI50 in the experiment with SNB-19 CNS was 28.6 µM; in the experiment with UACC-257 melanoma it was 13.6 µM. Besides, the TGI in the experiment on BT-549 breast was 57.4 µM; with HOP-92 NSCLC, over 100 µM; with KM12 colon it was 91.6 µM; in the experiment on MDA-MB-231 breast, 16.6 µM; in the experiment with OVCAR-8 ovarian, 61.1 µM; in the experiment on RPMI-8226 leukemia, over 100 µM. Further, the TGI in the experiment on SNB-19 CNS is over 100 µM; in the experiment with UACC-257 melanoma, 44.4 µM.
`CCOC(=O)C(Cc1ccc(N(CCCl)CCCl)cc1)NC(=O)C(Cc1ccccc1)NC(C)=O` (stereo not drawn): the TGI is over 0.798 µM in the experiment with BT-549 breast; over 1 µM in the experiment with HOP-92 NSCLC; over 0.565 µM in the experiment on KM12 colon; over 0.366 µM in the experiment on MDA-MB-231 breast; over 1 µM in the experiment with OVCAR-8 ovarian; 0.211 µM with RPMI-8226 leukemia. Also, the TGI is over 0.294 µM in the experiment with SF-539 CNS, over 0.578 µM with SNB-19 CNS and over 0.486 µM with UACC-257 melanoma.
For `Fc1ccc2nc(-c3nc(-c4ccccc4)n4ccccc34)[nH]c2c1`, the GI50 with BT-549 breast is 2760 nM; in the experiment on HOP-92 NSCLC it was 1730 nM; in the experiment with KM12 colon, 3.31 µM; in the experiment on MDA-MB-231 breast it was 2450 nM; with OVCAR-8 ovarian, 1870 nM; in the experiment on SF-539 CNS it was 2320 nM. Moreover, the GI50 in the experiment with SK-MEL-28 melanoma is 2.13 µM; in the experiment with SNB-19 CNS it was 2.37 µM; in the experiment on UACC-257 melanoma, 2.16 µM. Moreover, the TGI in the experiment with BT-549 breast amounted to 7.61 µM; in the experiment on HOP-92 NSCLC it was 6.42 µM; in the experiment with KM12 colon it was 10.2 µM; with MDA-MB-231 breast, 10.7 µM; with OVCAR-8 ovarian, 4.1 µM; in the experiment on SF-539 CNS, 6.85 µM. Moreover, the TGI is 5.51 µM in the experiment on SK-MEL-28 melanoma, 6.22 µM with SNB-19 CNS and 4.76 µM in the experiment with UACC-257 melanoma.
Consider `CN1CCCC1c1cccnc1.O=C(O)c1ccccc1O.O=C([O-])c1ccccc1[OH2+].O=C([O-])c1ccccc1[OH2+].[Mn+2]` (stereo not drawn), for which the GI50 with BT-549 breast is 54300 nM; in the experiment with HOP-92 NSCLC, over 100000 nM; in the experiment on KM12 colon, over 100 µM; in the experiment on MDA-MB-231 breast it was over 100000 nM; in the experiment on OVCAR-8 ovarian, over 100000 nM; in the experiment on RPMI-8226 leukemia, 77.9 µM. Further, the GI50 with SK-MEL-28 melanoma was over 100 µM; with SNB-19 CNS, over 100 µM; in the experiment with UACC-257 melanoma, 56.7 µM. Further, the TGI in the experiment with BT-549 breast, with HOP-92 NSCLC, with KM12 colon, in the experiment with MDA-MB-231 breast, in the experiment on OVCAR-8 ovarian and with RPMI-8226 leukemia was over 100 µM each time. The TGI in the experiment with SK-MEL-28 melanoma, with SNB-19 CNS and with UACC-257 melanoma was over 100 µM throughout.
Consider `CC1CCC2C(CN(CC3=C(C(F)(F)F)OC4OC5(C)CCC6C(C)CCC3C46OO5)CC3=C(C(F)(F)F)OC4OC5(C)CCC6C(C)CCC3C46OO5)=C(C(F)(F)F)OC3OC4(C)CCC1C32OO4` (stereo not drawn), for which the GI50 with BT-549 breast was 13100 nM; in the experiment with HOP-92 NSCLC it was 6300 nM; with KM12 colon, 3.72 µM; in the experiment on MDA-MB-231 breast, 13400 nM; in the experiment on OVCAR-8 ovarian, 14100 nM; in the experiment with SF-539 CNS, 11900 nM. Besides, the figures for the GI50 in the experiment on SK-MEL-28 melanoma, in the experiment on SNB-19 CNS and in the experiment with UACC-257 melanoma were 30.1 µM, 30.8 µM and 27.1 µM, respectively. Besides, the TGI in the experiment on BT-549 breast turned out to be 34.1 µM; with HOP-92 NSCLC, 33.4 µM; in the experiment with KM12 colon it was 10.1 µM; in the experiment on MDA-MB-231 breast, 36.6 µM; with OVCAR-8 ovarian it was 76.4 µM; with SF-539 CNS it was 38.6 µM. The TGI with SK-MEL-28 melanoma, in the experiment with SNB-19 CNS and with UACC-257 melanoma was over 100 µM throughout.
With `Clc1ccc([I+]c2ccc(Cl)cc2Cl)c(Cl)c1`, the GI50 with BT-549 breast is 2020 nM; in the experiment with KM12 colon it was 2.13 µM; in the experiment with MDA-MB-231 breast, 2040 nM; with OVCAR-8 ovarian, 2100 nM; in the experiment with RPMI-8226 leukemia, 2.19 µM; in the experiment on SF-539 CNS, 1800 nM. Also, the GI50 in the experiment with SK-MEL-28 melanoma was 7.14 µM; in the experiment with SNB-19 CNS it was 4.28 µM; in the experiment on UACC-257 melanoma it was 2.38 µM. Further, the TGI is 4.06 µM with BT-549 breast; 4.47 µM with KM12 colon; 4.42 µM in the experiment with MDA-MB-231 breast; 4.8 µM in the experiment on OVCAR-8 ovarian; 5.25 µM with RPMI-8226 leukemia; 3.39 µM with SF-539 CNS. Also, the results for the TGI in the experiment on SK-MEL-28 melanoma, in the experiment with SNB-19 CNS and in the experiment on UACC-257 melanoma were 21.1 µM, 15.9 µM and 5.8 µM, respectively.
For the compound `COc1cc(/C=C/C(=O)O[C@H]2[C@H](O[C@@H]3O[C@@H](C)[C@H](O)[C@@H](O)[C@H]3O)[C@@H](O)[C@H](OCCc3ccc(O)c(O)c3)O[C@@H]2COC2OCC(O)(CO)C2O)ccc1O` (stereo partly drawn), the GI50 in the experiment with BT-549 breast was 23800 nM; in the experiment with HOP-92 NSCLC, 402 nM; with KM12 colon, over 100 µM; in the experiment with MDA-MB-231 breast, over 100000 nM; in the experiment with RPMI-8226 leukemia it was over 100 µM; in the experiment on SK-MEL-28 melanoma, over 100 µM. The GI50 in the experiment on SNB-19 CNS and in the experiment with UACC-257 melanoma was over 100 µM in each case. In addition, the TGI in the experiment on BT-549 breast was 41.8 µM; with HOP-92 NSCLC, over 100 µM; in the experiment with KM12 colon, over 100 µM; in the experiment with MDA-MB-231 breast it was over 100 µM; in the experiment with RPMI-8226 leukemia, over 100 µM; in the experiment on SK-MEL-28 melanoma it was over 100 µM. Moreover, the TGI with SNB-19 CNS and in the experiment on UACC-257 melanoma was over 100 µM in each case.
Turning to `CC1CCN(CCOc2ccc(CNc3ccc4nc(CCC5CCCCC5)[nH]c4c3)cc2)CC1`, the GI50 in the experiment on BT-549 breast was 1520 nM; with HOP-92 NSCLC, 643 nM; with KM12 colon it was 1.77 µM; in the experiment on MDA-MB-231 breast, 1530 nM; in the experiment with OVCAR-8 ovarian, 1960 nM; in the experiment with RPMI-8226 leukemia, 1.38 µM. Moreover, the GI50 in the experiment on SF-539 CNS was 1560 nM; in the experiment with SNB-19 CNS it was 2.03 µM; in the experiment with UACC-257 melanoma it was 1.88 µM. Besides, the TGI in the experiment with BT-549 breast was determined as 2.91 µM; in the experiment on HOP-92 NSCLC it was 2.23 µM; in the experiment with KM12 colon it was 3.51 µM; with MDA-MB-231 breast, 2.94 µM; in the experiment on OVCAR-8 ovarian, 4.24 µM; with RPMI-8226 leukemia, 3.35 µM. The TGI in the experiment on SF-539 CNS came to 3.01 µM; in the experiment with SNB-19 CNS, 4.2 µM; with UACC-257 melanoma, 3.74 µM.
As to `O=C1C(Sc2ccc3ccccc3c2)=C(Sc2ccc3ccccc3c2)C(=O)c2ccccc21`, the TGI in the experiment with BT-549 breast was 83.2 µM; in the experiment with HOP-92 NSCLC, 22.3 µM; in the experiment with MDA-MB-231 breast, 18.3 µM; in the experiment with OVCAR-8 ovarian it was 22.2 µM; in the experiment on SF-539 CNS it was 22.8 µM; with SK-MEL-28 melanoma, 28.5 µM. The values for the TGI with SNB-19 CNS and in the experiment on UACC-257 melanoma were 20.3 µM and 16.3 µM, respectively.
